The source of these data is PubChem BioAssay AID1745844 (Carcinogenic Potency Database (CPDB), 2022).

A word on the TD50: it is the 50% point of the dose-response relation for the toxic effect studied.

“And” between values parts separate entries of the source, which are not always exact repeats. Equal values may be shown once. The source made the active and inactive calls. How the calls were made is not given here.

The subject of this series is rodent lifetime carcinogenesis bioassay, tumor incidence TD50. Nature of the series: chronic cancer bioassays in animals – CPDB, compiled studies (AID 1745844).

In the case of `Cc1cc(C)c(N=Nc2c(O)c(S(=O)(=O)O)cc3cc(S(=O)(=O)O)ccc23)cc1C`, the TD50 by setting is: (rat, strain Bethesda black, both sexes, in feed, site: liver, lesion: carcinoma, dosed 104 weeks, study length 104 weeks) 2480 mg/kg/day; (rat, strain Bethesda black, both sexes, in feed, site: liver, lesion: hepatocellular tumor, benign, dosed 104 weeks, study length 104 weeks) 3540 mg/kg/day; (rat, strain Bethesda black, both sexes, in feed, site: liver, lesion: nodular hyperplasia, dosed 104 weeks, study length 104 weeks) 3040 mg/kg/day; (rat, strain Bethesda black, both sexes, in feed, site: liver, lesion: several types, types named in the paper, dosed 104 weeks, study length 104 weeks) 746 mg/kg/day; (rat, strain Not specified, females, in feed, site: bile duct, lesion: adenoma, dosed 65 weeks, study length 65 weeks) 1570 mg/kg/day; (rat, strain Not specified, females, in feed, site: liver, lesion: carcinoma, dosed 65 weeks, study length 65 weeks) 1990 mg/kg/day. In addition, the TD50 (rat, strain Not specified, males, in feed, site: bile duct, lesion: adenoma, dosed 65 weeks, study length 65 weeks) is 755 mg/kg/day; the TD50 (rat, strain Not specified, males, in feed, site: liver, lesion: carcinoma, dosed 65 weeks, study length 65 weeks) was 1240 mg/kg/day; the TD50 (rat, strain Osborne-Mendel, both sexes, in feed, site: any site (literature study), lesion: malignant tumor, dosed 104 weeks, study length 104 weeks) worked out at 12900 mg/kg/day; the TD50 (rat, strain Osborne-Mendel, both sexes, in feed, site: liver, lesion: carcinoma, dosed 104 weeks, study length 104 weeks) was 7540 mg/kg/day; the TD50 (rat, strain Osborne-Mendel, both sexes, in feed, site: liver, lesion: hepatocellular tumor, benign, dosed 104 weeks, study length 104 weeks) was 909 mg/kg/day; the TD50 (rat, strain Osborne-Mendel, both sexes, in feed, site: liver, lesion: nodular hyperplasia, dosed 104 weeks, study length 104 weeks) was 639 mg/kg/day. The TD50 by setting is: (rat, strain Wistar, both sexes, in feed, site: liver, lesion: one or several types, types not named, dosed 65 weeks, study length 65 weeks) 225 mg/kg/day and 394 mg/kg/day; (rat, strain Wistar, both sexes, in feed, site: liver, lesion: one or several types, types not named, dosed 70 weeks, study length 70 weeks) 314 mg/kg/day and 420 mg/kg/day.
`FC(F)Cl`: the carcinogen call by setting is: (mouse, strain Swiss, females, inhaled, site: any site (literature study), lesion: malignant tumor, dosed 78 weeks, study length 104 weeks) “negative (inactive)”; (mouse, strain Swiss, females, inhaled, site: any site (literature study), lesion: several types, types named in the paper, dosed 78 weeks, study length 104 weeks) “negative (inactive)”; (mouse, strain Swiss, females, inhaled, site: lung, lesion: adenoma, dosed 78 weeks, study length 104 weeks) “negative (inactive)”; (mouse, strain Swiss, males, inhaled, site: any site (literature study), lesion: several types, types named in the paper, dosed 78 weeks, study length 104 weeks) “negative (inactive)”; (mouse, strain Swiss, males, inhaled, site: lung, lesion: adenoma, dosed 78 weeks, study length 104 weeks) “negative (inactive)”; (rat, strain Sprague-Dawley, females, inhaled, site: liver, lesion: angiosarcoma, dosed 104 weeks, study length 104 weeks) “negative (inactive)”. Besides, the carcinogen call reads like this: (rat, strain Sprague-Dawley, males, inhaled, site: any site (literature study), lesion: malignant tumor, dosed 104 weeks, study length 104 weeks) “negative (inactive)”; (rat, strain Sprague-Dawley, males, inhaled, site: liver, lesion: angiosarcoma, dosed 104 weeks, study length 104 weeks) “negative (inactive)”. The TD50 (mouse, strain Swiss, males, inhaled, site: any site (literature study), lesion: malignant tumor, dosed 78 weeks, study length 104 weeks) was 98300 mg/kg/day (inactive); the TD50 (rat, strain Sprague-Dawley, females, inhaled, site: any site (literature study), lesion: malignant tumor, dosed 104 weeks, study length 104 weeks) is 20100 mg/kg/day (inactive); the TD50 (rat, strain Sprague-Dawley, females, inhaled, site: any site (literature study), lesion: several types, types named in the paper, dosed 104 weeks, study length 104 weeks) is 26000 mg/kg/day (inactive); the TD50 (rat, strain Sprague-Dawley, males, inhaled, site: any site (literature study), lesion: several types, types named in the paper, dosed 104 weeks, study length 104 weeks) was 6540 mg/kg/day (inactive).
